The values below are quoted from earlier work in patent publication US20090030057A1, “Pharmaceutical composition of telmisartan” (priority 2005, published 2009).

Molecules are shown by their SMILES. Like-named read-outs stand apart in the source and are kept apart here.

`CCCc1nc2c(C)cc(-c3nc4ccccc4n3C)cc2n1Cc1ccc(-c2ccccc2C(=O)O)cc1` [Telmisartan, 4′-[2-n-propyl-4-methyl-6-(1-methylbenzimid-azol-2-yl)benzimidazol-1-ylmethyl]biphenyl-2-carboxylic acid]: the solubility entry is on record as “sparingly soluble” (in a strong acid (with the exception of hydrochloric acid)), “soluble” (in a strong base), “insoluble” (in hydrochloric acid) and “practically insoluble” (in water or an aqueous solution in the pH range of 3 to 9).
